“And” between values parts separate entries of the source, which are not always exact repeats. Equal entries are not always repeated.
Columns and labels:
TLM1 cells = test: X-ray radiation in combination with compound, propidium iodide dead cells, ratio of corrected AUC; assay type: cell-based, canine; conditions: for Potency of X-ray radiations in combination with compound (in words): TLM1; for Activity: ratio of corrected AUC of X-ray radiation in combination with compound / corrected AUC of X-ray radiation alone: TLM1, compound at 30 μM
Protocol: Canine melanoma TLM-1 cells are maintained in DMEM medium supplemented with GlutaMAX™, 10% fetal bovine serum, 1× Hepes and 1% penicillin-streptomycin.
TLM-1 cells were seeded with the BioTek MicroFlo™ dispenser in μClear® black 384-well plates (Greiner) at the density of 20,000 cells/mL in 50 μL. Compounds for pre-treatment were added 2 h after the seeding, using an Echo 550 (Labcyte). The next day, cells were washed five times with 40 μL media without phenol red with a plate washer (Hydrospeed, Tecan). Cells were irradiated with 4, 6, 8, 12, 16, 20 and 24 Gray (Gy). […] This step was repeated every 72 h after radiation. Plates were incubated at 37° C. and 5% CO2. […] 4 images per well were collected. Images were analyzed with Columbus software (Perkin Elmer). In this system we used predefined building blocks to measure different parameters on nuclei detected. We applied a threshold based on propidium iodide intensity in nuclei of controls to select and count dead cells. By dividing the number of dead cells by the number of nuclei detected we obtained the percentage of dead cells. AUC were determined in one experiment with triplicate incubates on percentage of cells labelled with propidium iodide and were corrected by the percentage of cells labelled with propidium iodide at 0 Gy. Ratio of AUC corrected was determined as followed: Activity=(Area of the dose-concentration curve of cytotoxic agent combined with one concentration of compound corrected by the effect of the compound alone at 0Gy)/(Area of the dose-concentration curve of radiation alone corrected by the effect of the vehicle at 0Gy).

OPM2 cells = test: CFZ potency increase, ratio of CC50 of CFZ alone / with compound; assay type: cell-based, human
Source text: Human multiple myeloma cells OPM2 (ACC 50, DSMZ) are maintained at 0.3-0.7 10^6 cells/mL in RPMI1640 medium supplemented with GlutaMAX™, 10% fetal bovine serum and 1% penicillin-streptomycin.
We developed a cell-based, high content assay allowing the rapid detection and quantification of apoptotic cells. Caspase-3/7 activity was detected in real-time using the NucView™ 488 Caspase-3 substrate (Biotium), where the caspase-3/7 substrate peptide sequence DEVD is attached to a nucleic acid dye. The NucView™ 488 reagent crosses the plasma membrane to enter the cytoplasm, where the dye is unable to bind to DNA and remains non-fluorescent. Once the substrate has been cleaved by activated caspase-3/7 in apoptotic cells, the high-affinity DNA dye is released and migrates to the cell nucleus to stain the nucleus with a bright green fluorescence. All cell nuclei were also labeled with Hoechst 33342 (Ozyme).
For OPM2, briefly, nanoliters of compound and cytotoxic agent in DMSO stock solutions were first transferred and combined in 384-microtiter well plate using an Echo555 liquid handler (Labcyte). The exact volume of each solution to be transferred was calculated to achieve subsequently the target concentration in the 70 μL volume incubate. Final DMSO content was maintained at 0.2%. Then, 70 μL of cells treated with 1 μM NucView™ 488 and 20 ng/mL Hoechst 33342 were distributed to the plates to obtain a final density of 12,000 cells per well. The microplates were incubated at 37° C. and 5% CO2 in an automated LiCONiC STR240 UB cell incubator, and images were acquired at various times at 405 nm and 488 nm with the high-resolution automated confocal microscope INCell 6000 (GE). Four fields per well were read with the 20× objective in a confocal mode. The BioCel workstation was managed by VWorks automation control software
For all cells, Columbus software (Perkin) was used for image quantification and analysis. First, Hoechst 33342 staining was used for an automated detection of nuclei, in which the mean fluorescence intensity for NucView™ 488 was quantified. Inspection of control cells at initial time was used to set a threshold level of NucView™ 488 fluorescence to separate non apoptotic cells from apoptotic cells. Finally, for each well, the result was expressed as percentage of apoptotic cells in the total cell population. CC50 values were calculated from concentration-response curves by a nonlinear regression analysis at four parameters using Excel Fit or GraphPad Prim softwares.
Activity=(% of apoptotic cells with cytotoxic agent in combination with compound of the invention)/(% of apoptotic cells with cytotoxic agent alone). • Ratio of CC50: The CC50 of the cytotoxic agent was calculated in absence and in presence of a compound of the invention.
Activity=(CC50 of agent alone)/(CC50 of agent with compound). • Ratio of AUC. Activity=(Area of the dose-concentration curve of cytotoxic agent combined with one concentration of compound)/(Area of the dose-concentration curve of cytotoxic agent alone). (Lehar J. et al, 2008 (molecular systems biology 4:215)).

[1] = OPM2, compound at 7.5 μM (Table 5)
[2] = OPM2, compound at a concentration of 3.7 μM (Table 5, footnote b)

Structure (SMILES) | Potency of X-ray radiations in combination with compound (in words) (TLM1 cells) | Activity: ratio of corrected AUC of X-ray radiation in combination with compound / corrected AUC of X-ray radiation alone (TLM1 cells) | Activity: ratio (CC50 of CFZ alone)/(CC50 of CFZ in combination with compound of the invention) (OPM2 cells; [1]) | other results
O=C(C[C@@H](Cc1ccc2ccccc2c1)n1cc([C@@H]2CCCN2C(=O)c2ccc(F)c(F)c2)nn1)NO [Compound 93, (3R)-3-[4-[(2S)-1-(3,4-difluorobenzoyl)pyrrolidin-2-yl]triazol-1-yl]-4-(2-naphthyl)butanehydroxamic acid] | increase the potency | 1.2 | 2.3 | 
CN(Cc1cn([C@@H](CC(=O)NO)Cc2ccc3c(c2)CCCC3)nn1)C(=O)c1ccc(F)c(F)c1 [Compound 169, (R)-3,4-difluoro-N-((1-(4-(hydroxyamino)-4-oxo-1-(5,6,7,8-tetrahydronaphthalen-2-yl)butan-2-yl)-1H-1,2,3-triazol-4-yl)methyl)-N-methylbenzamide] | increase the potency | 2.5 | 3.3 | 
O=C(C[C@@H](Cc1ccc2ccccc2c1)n1cc(C2CSCN2C(=O)c2ccc(F)cc2)nn1)NO (stereo partly drawn) [Compound 186, (3R)-3-(4-(3-(4-fluorobenzoyl)thiazolidin-4-yl)-1H-1,2,3-triazol-1-yl)-N-hydroxy-4-(naphthalen-2-yl)butanamide] | increase the potency | 2.0 | 2.9 | 
CC(C)CN(Cc1cn([C@@H](CC(=O)NO)Cc2c[nH]c3ccccc23)nn1)C(=O)c1ccc(F)c(F)c1 [Compound 98, 3,4-difluoro-N-[[1-[(1R)-3-(hydroxyamino)-1-(1H-indol-3-ylmethyl)-3-oxo-propyl]triazol-4-yl]methyl]-N-isobutyl-benzamide] |  |  | 2.0 | 
O=C(C[C@@H](Cc1c[nH]c2ccccc12)n1cc(C(Cc2ccc(O)cc2)NC(=O)c2ccc(F)c(F)c2)nn1)NO (stereo partly drawn) [Compound 146, 3,4-Difluoro-N-[1-[1-[(1R)-3-(hydroxyamino)-1-(1H-indol-3-ylmethyl)-3-oxo-propyl]triazol-4-yl]-2-(4-hydroxyphenyl)ethyl]benzamide] |  |  | 1.4 | 
O=C(C[C@@H](Cc1ccc2ccccc2c1)n1cc(C2CCCCN2C(=O)c2ccc(F)cc2)nn1)NO (stereo partly drawn) [Compound 187, (3R)-3-(4-(1-(4-fluorobenzoyl)piperidin-2-yl)-1H-1,2,3-triazol-1-yl)-N-hydroxy-4-(naphthalen-2-yl)butanamide] | increase the potency | 2.4 | 3.4 | 
CC(NC(=O)c1ccc(F)cc1)c1cn([C@@H](CC(=O)NO)Cc2ccc3c(c2)C(C)(C)CCC3(C)C)nn1 (stereo partly drawn) [Compound 172, 4-fluoro-N-(1-(1-((R)-4-(hydroxyamino)-4-oxo-1-(5,5,8,8-tetramethyl-5,6,7,8-tetrahydronaphthalen-2-yl)butan-2-yl)-1H-1,2,3-triazol-4-yl)ethyl)benzamide] |  |  | 3.9 | 
O=C(C[C@@H](Cc1ccc2sccc2c1)n1cc(CNC(=O)c2ccc(F)cc2)nn1)NO [Compound 173, (R)—N-((1-(1-(benzo[b]thiophen-5-yl)-4-(hydroxyamino)-4-oxobutan-2-yl)-1H-1,2,3-triazol-4-yl)methyl)-4-fluorobenzamide] |  |  | 2.1 | 
O=C(C[C@@H](Cc1ccc2ccccc2c1)n1cc(CNC(=O)c2cccc(F)c2)nn1)NO [Compound 184, (R)-3-fluoro-N-((1-(4-(hydroxyamino)-1-(naphthalen-2-yl)-4-oxobutan-2-yl)-1H-1,2,3-triazol-4-yl)methyl)benzamide] |  |  | 2.4 | 
O=C(C[C@@H](Cc1c[nH]c2ccccc12)n1cc([C@@H]2CCCN2C(=O)c2ccc(F)c(F)c2)nn1)NO [Compound 88, (3R)-3-[4-[(2S)-1-(3,4-difluorobenzoyl)pyrrolidin-2-yl]triazol-1-yl]-4-(1H-indol-3-yl)butanehydroxamic acid] |  |  | 1.7 | 
CN(Cc1cn([C@@H](CC(=O)NO)Cc2ccc3c(c2)CCCC3)nn1)C(=O)c1ccc(F)cc1 [Compound 166, (R)-4-fluoro-N-((1-(4-(hydroxyamino)-4-oxo-1-(5,6,7,8-tetrahydronaphthalen-2-yl)butan-2-yl)-1H-1,2,3-triazol-4-yl)methyl)-N-methylbenzamide] |  |  |  | Activity: ratio (CC50 of CFZ alone)/(CC50 of CFZ in combination with compound of the invention) (OPM2 cells; [2]): 2.1
O=C(C[C@@H](Cc1c[nH]c2ccccc12)n1cc(C2COCCN2C(=O)c2ccc(F)c(F)c2)nn1)NO (stereo partly drawn) [Compound 90, (3R)-3-[4-[4-(3,4-difluorobenzoyl)morpholin-3-yl]triazol-1-yl]-4-(1H-indol-3-yl)butanehydroxamic acid] |  |  | 1.4 | 
O=C(C[C@@H](Cc1ccc2ccsc2c1)n1cc(CNC(=O)c2ccc(F)cc2)nn1)NO [Compound 174, (R)—N-((1-(1-(benzo[b]thiophen-6-yl)-4-(hydroxyamino)-4-oxobutan-2-yl)-1H-1,2,3-triazol-4-yl)methyl)-4-fluorobenzamide] |  |  | 2.0 and 1.5 | 
O=C(C[C@@H](Cc1ccc2c(c1)CCCC2)n1cc(CNC(=O)c2ccc(F)c(F)c2)nn1)NO [Compound 144, (R)-3,4-difluoro-N-((1-(4-(hydroxyamino)-4-oxo-1-(5,6,7,8-tetrahydronaphthalen-2-yl)butan-2-yl)-1H-1,2,3-triazol-4-yl)methyl)benzamide] | increase the potency | 2.4 |  | Activity: ratio (CC50 of CFZ alone)/(CC50 of CFZ in combination with compound of the invention) (OPM2 cells; [2]): 1.8
O=C(C[C@@H](Cc1c[nH]c2ccccc12)n1cc(C(Cc2ccc(OCc3ccccc3)cc2)NC(=O)c2ccc(F)c(F)c2)nn1)NO (stereo partly drawn) [Compound 89, N-[2-(4-benzyloxyphenyl)-1-[1-[(1R)-3-(hydroxyamino)-1-(1H-indol-3-ylmethyl)-3-oxo-propyl]triazol-4-yl]ethyl]-3,4-difluoro-benzamide] |  |  | 7.6 | Activity: ratio (CC50 of CFZ alone)/(CC50 of CFZ in combination with compound of the invention) (OPM2 cells; OPM2, compound at 7.5 μM (Table 6)): 7.6

— patent US20220073475A1, “5-MEMBERED HETEROARYL COMPOUNDS CONTAINING A HYDROXAMATE MOIETY AND THEIR USE” (UNIVERSITE DE LILLE, priority 2019, published 2022)
